Key:
[1] = tested on: 60 cancer cell lines; assay: NCI-60 one-dose screen (10 μM); assay type: cell-based; details: Homo sapiens; one dose of 10 μM, mean over 60 cancer cell lines; read-out: Mean Growth Percent (MGP)
Text: Additionally, the mean of the growth percentages (MGP) of each compound against all the 60 cancer cell lines is also reported, which is used as one of the selection criteria to continue with tests at five concentration doses.

[2] = tested on: CCRF-CEM; assay: cells; details: Homo sapiens, 48 h
[3] = tested on: HL-60(TB); assay: cells; details: Homo sapiens, HL-60, 48 h
[4] = tested on: K-562; assay: cells; details: Homo sapiens, K562, 48 h
[5] = tested on: MOLT-4; assay: cells; details: Homo sapiens, MOLT-4, 48 h
[6] = tested on: RPMI-8226; assay: cells; details: Homo sapiens, RPMI-8226, 48 h
[7] = tested on: A549/ATCC; assay: cells; details: Homo sapiens, A549, 48 h
[8] = tested on: EKVX; assay: cells; details: Homo sapiens, 48 h
[9] = tested on: HOP-92; assay: cells; details: Homo sapiens, HOP-92, 48 h
[10] = tested on: NCI-H226; assay: cells; details: Homo sapiens, NCI-H226, 48 h
[11] = tested on: NCI-H23; assay: cells; details: Homo sapiens, NCI-H23, 48 h
[12] = tested on: NCI-H460; assay: cells; details: Homo sapiens, NCI-H460, 48 h
[13] = tested on: HCC-2998; assay: cells; details: Homo sapiens, HCC 2998, 48 h
[14] = tested on: HCT-116; assay: cells; details: Homo sapiens, HCT-116, 48 h
[15] = tested on: SW-620; assay: cells; details: Homo sapiens, SW-620, 48 h
[16] = tested on: SF-539; assay: cells; details: Homo sapiens, SF-539, 48 h
[17] = tested on: LOX IMVI; assay: cells; details: Homo sapiens, 48 h
[18] = tested on: MALME-3M; assay: cells; details: Homo sapiens, 48 h
[19] = tested on: M14; assay: cells; details: Homo sapiens, M14, 48 h
[20] = tested on: MDA-MB-435; assay: cells; details: Homo sapiens, MDA-MB-435, 48 h
[21] = tested on: SK-MEL-28; assay: cells; details: Homo sapiens, SK-MEL-28, 48 h
[22] = tested on: UACC-257; assay: cells; details: Homo sapiens, UACC-257, 48 h
[23] = tested on: IGROV1; assay: cells; details: Homo sapiens, IGROV-1, 48 h
[24] = tested on: OVCAR-5; assay: cells; details: Homo sapiens, OVCAR-5, 48 h
[25] = tested on: OVCAR-8; assay: cells; details: Homo sapiens, OVCAR-8, 48 h
[26] = tested on: SK-OV-3; assay: cells; details: Homo sapiens, SK-OV-3, 48 h
[27] = tested on: A498; assay: cells; details: Homo sapiens, A498, 48 h
[28] = tested on: ACHN; assay: cells; details: Homo sapiens, 48 h
[29] = tested on: RXF 393; assay: cells; details: Homo sapiens, RXF 393, 48 h
[30] = tested on: SN12C; assay: cells; details: Homo sapiens, 48 h
[31] = tested on: TK-10; assay: cells; details: Homo sapiens, TK-10, 48 h
[32] = tested on: PC-3; assay: cells; details: Homo sapiens, PC-3, 48 h
[33] = tested on: MCF7; assay: cells; details: Homo sapiens, MCF7, 48 h
[34] = tested on: MDA-MB-231/ATCC; assay: cells; details: Homo sapiens, MDA-MB-231, 48 h
[35] = tested on: HS 578T; assay: cells; details: Homo sapiens, 48 h
[36] = tested on: BT-549; assay: cells; details: Homo sapiens, BT-549, 48 h

For CN(C)c1nc(NCCNS(=O)(=O)c2ccc(C(=O)/C=C/c3ccc(C(F)(F)F)cc3)cc2)nc(N2CCOCC2)n1 [23g], the activity at 10 µM [1] was -14.8%, the GI50 [2] was 3.2 µM and the CC50 ([2]; read-out: LC50) was > 100 µM. For the same compound, the GI50 [3] was 5.12 µM, the CC50 ([3]; read-out: LC50) was > 100 µM and the GI50 ([4]; K-562, 48 h) was 3.21 µM. The CC50 ([4]; read-out: LC50) was > 100 µM, the GI50 [5] was 3.48 µM and the CC50 ([5]; read-out: LC50) was > 100 µM. For the same compound, the GI50 [6] was 1.77 µM, the CC50 ([6]; read-out: LC50) was > 100 µM and the GI50 [7] was 13.8 µM. The CC50 ([7]; read-out: LC50) was 62.3 µM, the GI50 [8] was 14.3 µM and the CC50 ([8]; read-out: LC50) was 52.5 µM. The GI50 [9] was 15.2 µM, the CC50 ([9]; read-out: LC50) was 65.2 µM and the GI50 [10] was 16.1 µM. The CC50 ([10]; read-out: LC50) was 78.9 µM, the GI50 [11] was 13 µM and the CC50 ([11]; read-out: LC50) was 52.6 µM. For the same compound, the GI50 [12] was 16.1 µM, the CC50 ([12]; read-out: LC50) was 65.6 µM and the GI50 [13] was 12.9 µM. For the same compound, the CC50 ([13]; read-out: LC50) was 52.5 µM, the GI50 [14] was 3.19 µM and the CC50 ([14]; read-out: LC50) was 33.5 µM. It also gave a GI50 [15] of 3.3 µM, a CC50 ([15]; read-out: LC50) of 36.5 µM and a GI50 [16] of 13 µM. The CC50 ([16]; read-out: LC50, SF-539, 48 h) was 50.7 µM, the GI50 [17] was 1.68 µM and the CC50 ([17]; read-out: LC50, LOX IMVI, 48 h) was 5.94 µM. It also gave a GI50 [18] of 14.4 µM, a CC50 ([18]; read-out: LC50) of 53 µM and a GI50 [19] of 9.83 µM. The CC50 ([19]; read-out: LC50) was 49.5 µM, the GI50 [20] was 10.3 µM and the CC50 ([20]; read-out: LC50) was 51.1 µM. It also gave a GI50 [21] of 14.4 µM, a CC50 ([21]; read-out: LC50) of 52.6 µM and a GI50 [22] of 15.3 µM. It also gave a CC50 ([22]; read-out: LC50) of 56.5 µM, a GI50 [23] of 1.77 µM and a CC50 ([23]; read-out: LC50) of 6.97 µM. The GI50 [24] was 14.5 µM, the CC50 ([24]; read-out: LC50) was 53 µM and the GI50 [25] was 14.4 µM. It also gave a CC50 ([25]; read-out: LC50) of 54.9 µM, a GI50 [26] of 14.7 µM and a CC50 ([26]; read-out: LC50) of 59 µM. For the same compound, the GI50 [27] was 13.3 µM, the CC50 ([27]; read-out: LC50) was 53 µM and the GI50 [28] was 8.6 µM. For the same compound, the CC50 ([28]; read-out: LC50) was 45.5 µM, the GI50 [29] was 11.5 µM and the CC50 ([29]; read-out: LC50) was 49 µM. For the same compound, the GI50 [30] was 12.5 µM, the CC50 ([30]; read-out: LC50) was 50 µM and the GI50 [31] was 15.5 µM. For the same compound, the CC50 ([31]; read-out: LC50) was 56 µM, the GI50 [32] was 10.8 µM and the CC50 ([32]; read-out: LC50) was 60 µM. The GI50 [33] was 1.68 µM, the CC50 ([33]; read-out: LC50) was 6.63 µM and the GI50 [34] was 11.7 µM. For the same compound, the CC50 ([34]; read-out: LC50) was 50.3 µM, the GI50 [35] was 17.8 µM and the CC50 ([35]; read-out: LC50) was > 100 µM. For the same compound, the GI50 [36] was 15.6 µM and the CC50 ([36]; read-out: LC50) was 54.9 µM.
